target: recombinant human SYK (GST-hSYK fusion protein) (Homo sapiens, UniProt P43405); test: biochemical; settings: rhSYK Activity (IC50), recombinant human GST-SYK 5 pM, ATP 25 μM, biotinylated substrate peptide 250 nM, HTRF, 10-dose titration
From the text: Homogeneous Time-Resolved Fluorescence (HTRF) Assay for the Recombinant Human SYK Enzyme:

IC50	SMILES
< 100 nM	Cc1cc(Nc2nccc(C(F)(F)F)n2)cc(-c2cnc([C@@]3(O)CC[C@H](C(=O)O)C(C)(C)C3)s2)c1Br [Example 111, (1S,4R)-4-[5-(2-bromo-3-methyl-5-{[4-(trifluoromethyl)pyrimidin-2-yl]amino}phenyl)-1,3-thiazol-2-yl]-4-hydroxy-2,2-dimethylcyclohexanecarboxylic acid]

same assay, conditions: rhSYK Activity, Table 109

IC50	SMILES
< 100 nM	NC(=O)Nc1cc(Nc2nccc(OC3CCNCC3)n2)cc(-c2cnc(C3(O)CCC3)s2)c1 [Example 109-11]
< 100 nM	Nc1cc(Nc2nccc(OC3CCNCC3)n2)cc(-c2cnc(C3(O)CCC3)s2)c1 [Example 109-12]
< 100 nM	Nc1cc(Nc2nccc(OC3CNC3)n2)cc(-c2cnc(C3(O)CCC3)s2)c1 [Example 109-14]

same assay, conditions: rhSYK Activity, Table 113A

SMILES	IC50
COCCOc1ccnc(Nc2cc(C)cc(-c3cnc(C4(O)CCC(C(=O)O)CC4)s3)c2)n1 (stereo not drawn) [Example 113A-1]	< 100 nM
COCCCOc1ccnc(Nc2cc(C)cc(-c3cnc([C@]4(O)CC[C@@H](C(=O)O)CC4)s3)c2)n1 [Example 113A-2]	< 100 nM
O=C(O)[C@H]1CC[C@](O)(c2ncc(-c3cc(Cl)cc(Nc4nccc(C(F)(F)F)n4)c3)s2)CC1 [Example 113A-3]	< 100 nM
Cc1cc(Nc2nccc(C)n2)cc(-c2cnc(C3(O)CCC(C(=O)O)C(C)C3)s2)c1 (stereo not drawn) [Example 113A-4]	< 100 nM
COC(=O)C1CCC(O)(c2ncc(-c3cc(C)cc(Nc4nccc(C)n4)c3)s2)CC1C (stereo not drawn) [Example 113A-8]	< 100 nM
COC(=O)C1CCC(O)(c2ncc(-c3cc(C)cc(Nc4nccc(C)n4)c3)s2)CC1C (stereo not drawn) [Example 113A-9]	100 to 1000 nM
COC(=O)C1CCC(O)(c2ncc(-c3cc(C)cc(Nc4nccc(C)n4)c3)s2)CC1C (stereo not drawn) [Example 113A-10]	< 100 nM
COC(=O)C1CCC(O)(c2ncc(-c3cc(C)cc(Nc4nccc(C)n4)c3)s2)CC1C (stereo not drawn) [Example 113A-11]	< 100 nM
COC(=O)C1CCC(O)(c2ncc(-c3cc(C)cc(Nc4nccc(C)n4)c3)s2)CC1C (stereo not drawn) [Example 113A-12]	100 to 1000 nM
COC(=O)C1CCC(O)(c2ncc(-c3cc(C)cc(Nc4nccc(C)n4)c3)s2)CC1C (stereo not drawn) [Example 113A-13]	100 to 1000 nM
CCc1ccnc(Nc2cc(C)cc(-c3cnc(C4(O)CCC(C(=O)O)C(C)C4)s3)c2)n1 (stereo not drawn) [Example 113A-14]	< 100 nM
COc1ccnc(Nc2cc(C)cc(-c3cnc([C@@]4(O)CC[C@H](C(=O)O)[C@H](C)C4)s3)c2)n1 [Example 113A-16]	< 100 nM
Cc1cc(Nc2ncc(F)c(C)n2)cc(-c2cnc([C@]3(O)CC[C@@H](C(=O)O)[C@@H](C)C3)s2)c1 [Example 113A-19]	< 100 nM
Cc1cc(Nc2nccc(C3CC3)n2)cc(-c2cnc([C@]3(O)CC[C@@H](C(=O)O)[C@@H](C)C3)s2)c1 [Example 113A-20]	< 100 nM
Cc1cc(Nc2nccc(C3CC3)n2)cc(-c2cnc([C@@]3(O)CC[C@H](C(=O)O)[C@H](C)C3)s2)c1 [Example 113A-21]	< 100 nM
Cc1cc(Nc2nccc(C3CC3)n2)cc(-c2cnc(C3(O)CCC(C(=O)O)C(C)C3)s2)c1 (stereo not drawn) [Example 113A-22]	< 100 nM
Cc1ccnc(Nc2cc(-c3cnc(C4(O)CCC(C(=O)O)C(C)C4)s3)cc(C3CC3)c2)n1 (stereo not drawn) [Example 113A-23]	< 100 nM
Cc1cc(Nc2nccc(C(C)C)n2)cc(-c2cnc([C@@]3(O)CC[C@H](C(=O)O)[C@H](C)C3)s2)c1 [Example 113A-25]	< 100 nM
Cc1cc(Nc2nccc(C(C)C)n2)cc(-c2cnc([C@]3(O)CC[C@@H](C(=O)O)[C@@H](C)C3)s2)c1 [Example 113A-26]	< 100 nM
Cc1cc(Nc2ncc(Cl)c(C)n2)cc(-c2cnc([C@@]3(O)CC[C@H](C(=O)O)[C@H](C)C3)s2)c1 [Example 113A-27]	< 100 nM
Cc1cc(Nc2ncc(Cl)c(C)n2)cc(-c2cnc([C@]3(O)CC[C@@H](C(=O)O)[C@@H](C)C3)s2)c1 [Example 113A-28]	< 100 nM
CCOC(=O)C1CCC(O)(c2ncc(-c3cc(C)cc(Nc4nccc(CC)n4)c3)s2)CC1C (stereo not drawn) [Example 113A-31]	< 100 nM
Cc1cc(Nc2ncc(F)c(C3CC3)n2)cc(-c2cnc([C@@]3(O)CC[C@H](C(=O)O)[C@H](C)C3)s2)c1 [Example 113A-33]	< 100 nM
Cc1cc(Nc2ncc(F)c(C3CC3)n2)cc(-c2cnc([C@]3(O)CC[C@@H](C(=O)O)[C@@H](C)C3)s2)c1 [Example 113A-34]	< 100 nM
Cc1cc(Nc2nccc(OC(C)C)n2)cc(-c2cnc([C@]3(O)CC[C@@H](C(=O)O)[C@@H](C)C3)s2)c1 [Example 113A-35]	< 100 nM
COc1nc(Nc2cc(C)cc(-c3cnc([C@@]4(O)CC[C@H](C(=O)O)[C@H](C)C4)s3)c2)ncc1Cl [Example 113A-36]	< 100 nM
COc1nc(Nc2cc(C)cc(-c3cnc([C@]4(O)CC[C@@H](C(=O)O)[C@@H](C)C4)s3)c2)ncc1Cl [Example 113A-37]	< 100 nM

Other lines, results leading:

IC50	SMILES
< 100 nM	COCCOc1ccnc(Nc2cc(C)cc(-c3cnc(C4(O)CCC(C(=O)O)C(C)C4)s3)c2)n1 (stereo not drawn) [Example 113A-38]
< 100 nM	COCCCOc1ccnc(Nc2cc(C)cc(-c3cnc(C4(O)CCC(C(=O)O)C(C)C4)s3)c2)n1 (stereo not drawn) [Example 113A-40]
< 100 nM	COCc1cc(Nc2nccc(C(F)(F)F)n2)cc(-c2cnc(C3(O)CCC(C(=O)O)C(C)C3)s2)c1 (stereo not drawn) [Example 113A-42]
< 100 nM	CCOC(=O)C1CCC(O)(c2ncc(-c3cc(C)cc(Nc4nccc(OCCOC)n4)c3)s2)CC1C (stereo not drawn) [Example 113A-43]
< 100 nM	CCOC(=O)C1CCC(O)(c2ncc(-c3cc(C)cc(Nc4nccc(OCCCOC)n4)c3)s2)CC1C (stereo not drawn) [Example 113A-47]
< 100 nM	CCc1ccnc(Nc2cc(C)cc(-c3cnc([C@@]4(O)CC[C@H](C(=O)O)C(C)(C)C4)s3)c2)n1 [Example 113A-49]
< 100 nM	COC(=O)[C@H]1CC[C@](O)(c2ncc(-c3cc(C)cc(Nc4nccc(C#N)n4)c3)s2)CC1(C)C [Example 113A-50]
< 100 nM	Cc1cc(Nc2nccc(C3CC3)n2)cc(-c2cnc(C3(O)CCC(C(=O)O)C(C)(C)C3)s2)c1 (stereo not drawn) [Example 113A-51]
< 100 nM	Cc1cc(Nc2nccc(C(C)C)n2)cc(-c2cnc(C3(O)CCC(C(=O)O)C(C)(C)C3)s2)c1 (stereo not drawn) [Example 113A-52]
< 100 nM	CCc1ccnc(Nc2cc(C)cc(-c3cnc([C@@]4(O)CC[C@H](C(=O)OC)C(C)(C)C4)s3)c2)n1 [Example 113A-53]
< 100 nM	COC(=O)[C@H]1CC[C@](O)(c2ncc(-c3cc(C)cc(Nc4nccc(OC)n4)c3)s2)CC1(C)C [Example 113A-54]
< 100 nM	COC(=O)[C@@H]1CC[C@@](O)(c2ncc(-c3cc(C)cc(Nc4nccc(OC)n4)c3)s2)CC1(C)C [Example 113A-55]
< 100 nM	COC(=O)C1CCC(O)(c2ncc(-c3cc(C)cc(Nc4nccc(C5CC5)n4)c3)s2)CC1(C)C (stereo not drawn) [Example 113A-56]
< 100 nM	Cc1cc(Nc2ncc(F)c(C3CC3)n2)cc(-c2cnc(C3(O)CCC(C(=O)O)C(C)(C)C3)s2)c1 (stereo not drawn) [Example 113A-57]
< 100 nM	Cc1cc(Nc2ncc(F)c(C3CC3)n2)cc(-c2cnc([C@@]3(O)CC[C@H](C(=O)O)C(C)(C)C3)s2)c1 [Example 113A-58]
< 100 nM	COCc1cc(Nc2nccc(C(F)(F)F)n2)cc(-c2cnc([C@@]3(O)CC[C@H](C(=O)O)C(C)(C)C3)s2)c1 [Example 113A-62]
100 to 1000 nM	COC(=O)C1CCC(O)(c2ncc(-c3cc(Cl)cc(Nc4nccc(C(F)(F)F)n4)c3)s2)CC1(C)C (stereo not drawn) [Example 113A-63]
< 100 nM	Cc1cc(Nc2nccc(C)n2)cc(-c2cnc(C3(O)CCC(C(=O)O)C(C)C3C)s2)c1 (stereo not drawn) [Example 113A-66]
< 100 nM	CCOC(=O)C1CCC(O)(c2ncc(-c3cc(C)cc(Nc4nccc(C)n4)c3)s2)C(C)C1C (stereo not drawn) [Example 113A-70]
< 100 nM	Cc1cc(Nc2nccc(C)n2)cc(-c2cnc(C3(O)CCC(C(=O)O)CC3C)s2)c1 (stereo not drawn) [Example 113A-80]
< 100 nM	CCOC(=O)C1CCC(O)(c2ncc(-c3cc(C)cc(Nc4nccc(C)n4)c3)s2)C(C)C1 (stereo not drawn) [Example 113A-87]
< 100 nM	Cc1cc(Nc2nccc(C(F)(F)F)n2)cc(-c2cnc(C3(O)CCC(C(=O)O)CC3C)s2)c1 (stereo not drawn) [Example 113A-88]
< 100 nM	CCOC(=O)C1CCC(O)(c2ncc(-c3cc(C)cc(Nc4nccc(C(F)(F)F)n4)c3)s2)C(C)C1 (stereo not drawn) [Example 113A-89]
< 100 nM	Cc1cc(Nc2nccc(C)n2)cc(-c2cnc(C3(O)CCC(C(=O)O)CC3O)s2)c1 (stereo not drawn) [Example 113A-90]
< 100 nM	Cc1cc(Nc2nccc(C)n2)cc(-c2cnc(C3(O)CCC(C(=O)O)CC3(C)C)s2)c1 (stereo not drawn) [Example 113A-92]

same assay, conditions: rhSYK Activity, Table 113B

IC50	SMILES
< 100 nM	Cc1cc(Nc2nccc(C)n2)cc(-c2cnc(C3(O)CC(C)C(C(=O)O)CC3C)s2)c1 (stereo not drawn) [Example 113B-3]
< 100 nM	CCOC(=O)C1CC(C)C(O)(c2ncc(-c3cc(C)cc(Nc4nccc(C)n4)c3)s2)CC1C (stereo not drawn) [Example 113B-7]
< 100 nM	CCOC(=O)C1CC(C)C(O)(c2ncc(-c3cc(C)cc(Nc4nccc(C)n4)c3)s2)CC1C (stereo not drawn) [Example 113B-8]
< 100 nM	CCOC(=O)C1CC(C)C(O)(c2ncc(-c3cc(C)cc(Nc4nccc(C)n4)c3)s2)CC1C (stereo not drawn) [Example 113B-9]
< 100 nM	CCOC(=O)C1CC(C)C(O)(c2ncc(-c3cc(C)cc(Nc4nccc(C)n4)c3)s2)CC1C (stereo not drawn) [Example 113B-10]
100 to 1000 nM	CCOC(=O)C1CC(C)C(O)(c2ncc(-c3cc(C)cc(Nc4nccc(C)n4)c3)s2)CC1C (stereo not drawn) [Example 113B-11]
< 100 nM	Cc1cc(Nc2nccc(C(F)(F)F)n2)cc(-c2cnc(C3(O)CC(C)C(C(=O)O)CC3C)s2)c1 (stereo not drawn) [Example 113B-12]
< 100 nM	CCOC(=O)C1CC(C)C(O)(c2ncc(-c3cc(C)cc(Nc4nccc(C(F)(F)F)n4)c3)s2)CC1C (stereo not drawn) [Example 113B-17]
< 100 nM	CCOC(=O)C1CC(C)C(O)(c2ncc(-c3cc(C)cc(Nc4nccc(C(F)(F)F)n4)c3)s2)CC1C (stereo not drawn) [Example 113B-18]
< 100 nM	CCOC(=O)C1CC(C)C(O)(c2ncc(-c3cc(C)cc(Nc4nccc(C(F)(F)F)n4)c3)s2)CC1C (stereo not drawn) [Example 113B-19]

— US8551984B2, “Aminopyrimidines as SYK inhibitors” (Merck Sharp & Dohme Corp., priority 2009, dated 2013)
